Test results taken from ChEMBL document CHEMBL1201862, “PubChem BioAssay data set” (2004).
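Where inhibition never reached the appropriate level, the endpoint shown equals the highest concentration tested. Otherwise, values were interpolated linearly from a five-concentration, 48-hour dose response in 96-well plates. GI50 marks 50% less growth.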 Active and inactive are the calls of the source. Cut-off read from the data, not from the text of the source: active = GI50 up to about 1.1 µM and inactive = higher. Peptide text beside a SMILES is read from it. * marks the point of attachment. Boc = CC(C)(C)OC(=O)*

Assays:
Assay in all cases: growth of human tumour cells (NCI), 48 h
LXFL 529 = test system: LXFL 529
XF498 = test system: XF498
M19-MEL = test system: M19-MEL
SNB-78 = test system: SNB-78
HOP-18 = test system: HOP-18
DMS-273 = test system: DMS-273
BT-549 = test system: BT-549
DMS-114 = test system: DMS-114

SMILES	GI50 (LXFL 529)	GI50 (M19-MEL)	GI50 (DMS-273)	GI50 (BT-549)	GI50 (DMS-114)	further results
O=C(NC1C=CCC2C(=O)N(c3ccccc3)C(=O)C12)OCc1ccccc1 (stereo unspecified)	> 100 µM (inactive)	> 100 µM (inactive)	> 100 µM (inactive)			GI50 (XF498): > 100 µM (inactive); GI50 (SNB-78): > 100 µM (inactive); GI50 (HOP-18): > 100 µM (inactive)
COc1ccc(C(=O)/C=C/c2ccc(OCC(=O)N3CCN(c4ccccc4)CC3)cc2)cc1	> 65.8 µM (inactive)	> 100 µM (inactive)	29.8 µM (inactive)	24.9 µM (inactive)	> 90.6 µM (inactive)	GI50 (XF498): 35.9 µM (inactive); GI50 (SNB-78): 15.1 µM (inactive); GI50 (HOP-18): > 100 µM (inactive)
FC(F)(F)c1ccc(Cc2nc3cc4ccccc4cc3[nH]2)cc1				> 100 µM (inactive)		
NC(=S)N1N=C2CCCCCC[C@@H]2[C@H]1c1ccccc1	40 µM (inactive)	38.5 µM (inactive)	34.2 µM (inactive)		27.1 µM (inactive)	GI50 (XF498): 23.9 µM (inactive); GI50 (SNB-78): > 100 µM (inactive)
O=C1Nc2c(ccc(Cl)c2I)C1=O	14 µM (inactive)	11.4 µM (inactive)	17 µM (inactive)		15.5 µM (inactive)	GI50 (XF498): 16 µM (inactive)
O=C1C(Cl)=C(NCCOCCO)C(=O)c2c(O)ccc(O)c21	7.62 µM (inactive)	1.81 µM (inactive)	3.89 µM (inactive)			GI50 (SNB-78): 12.7 µM (inactive); GI50 (HOP-18): 15.6 µM (inactive)
C#CCOC(=O)C(N)CC(N)=O (stereo unspecified)				> 100 µM (inactive)		
O=C1Cc2cn[nH]c2-c2ccccc2N1				22.5 µM (inactive)		
C=CC(Br)(CBr)CCC1OC1(C)C (stereo unspecified)				16.6 µM (inactive)		
O=C(Nc1cc(Cl)ccc1Cl)c1cc2cccc(Cl)c2oc1=O		> 100 µM (inactive)	> 100 µM (inactive)		> 100 µM (inactive)	GI50 (XF498): 24 µM (inactive); GI50 (HOP-18): 40.2 µM (inactive)
O=[N+]([O-])c1ccccc1S(=O)(=O)c1cc(O)cc2c1NCCC2				13.2 µM (inactive)		
CC(C)=CCC/C(C)=C/CC/C(C)=C/[C@@H]1[C@@H](CO)[C@]1(C)CC/C=C(\C)CCC=C(C)C				> 100 µM (inactive)		
CC12c3c4cc(Br)cc3Oc3cc(Br)cc(c31)Oc1cc(Br)cc(c12)O4				21.9 µM (inactive)		
O=C(N/C(=C\c1cc(Cl)ccc1Cl)c1nc2cc(Cl)ccc2[nH]1)c1ccccc1	13.6 µM (inactive)	16 µM (inactive)			15.4 µM (inactive)	GI50 (SNB-78): 21.7 µM (inactive)
COc1cc2c3c(c1O)-c1c(ccc(OC)c1OC)CC3N(C)CC2 (stereo unspecified)				> 100 µM (inactive)		
Cn1ccnc1Sc1ccc(/C=N/NC(=O)c2ccccc2[N+](=O)[O-])cc1[N+](=O)[O-]				83.9 µM (inactive)		

SMILES	GI50 (LXFL 529)	GI50 (M19-MEL)	GI50 (DMS-273)	GI50 (BT-549)	GI50 (DMS-114)	further results
COc1ccc(Cc2c(N)[nH]c(=O)[nH]c2=O)cc1				> 100 µM (inactive)		
CCNC(=S)N/N=C(/C)c1cccc(/C(C)=N\NC(=S)NCC)n1				10.4 µM (inactive)		
O=C(O)C(O)c1ccc(F)cc1 (stereo unspecified)				> 100 µM (inactive)		
COc1ccc(COCC[C@H](C)OC2OC(CO[Si](C)(C)C(C)(C)C)C(OC(=O)CCCN=[N+]=[N-])C(OC(=O)CCCN=[N+]=[N-])C2OC(=O)CCCN=[N+]=[N-])cc1 (stereo partly specified)				22.2 µM (inactive)		
CC1(C)CC(=O)C(=CNC(=S)c2ccccc2)C(=O)C1				> 100 µM (inactive)		
C/C(=N\NS(=O)(=O)c1ccc(C)cc1)c1cc2ccccc2n1C	> 100 µM (inactive)	> 100 µM (inactive)	> 100 µM (inactive)		> 100 µM (inactive)	
O=C(O)C1=Cc2cccc3cccc(c23)C1=O	> 100 µM (inactive)	> 100 µM (inactive)	> 100 µM (inactive)		> 100 µM (inactive)	GI50 (HOP-18): > 100 µM (inactive)
O=C(c1cccs1)N(C(=S)N1CCN(c2ccccn2)CC1)c1ccccc1	39.4 µM (inactive)	81.1 µM (inactive)	82.8 µM (inactive)		53 µM (inactive)	GI50 (XF498): 37.5 µM (inactive); GI50 (SNB-78): > 100 µM (inactive); GI50 (HOP-18): > 100 µM (inactive)
COC(Cc1ccccc1)NC(C)=O (stereo unspecified)				> 100 µM (inactive)		
OCC(O)COCn1cc(Cn2ncc3c(NCc4ccccc4)ncnc32)nn1 (stereo unspecified)				> 100 µM (inactive)		
C[C@H](CCC(=O)O)[C@H]1CC[C@H]2[C@@H]3[C@@H](O)C[C@@H]4C[C@H](O)CC[C@]4(C)[C@H]3CC[C@]12C				38.8 µM (inactive)		
COC(=O)[C@@]12OC[C@]34C([C@@H](O)C1O)[C@@]1(C)CC(=O)C(OC(=O)CC(C)C(F)(F)F)=C(C)C1C[C@H]3OC(=O)[C@H](O)[C@H]42 (stereo partly specified)	3.81 µM (inactive)	0.434 µM (active)	0.379 µM (active)		1.44 µM (inactive)	GI50 (XF498): 0.13 µM (active); GI50 (SNB-78): 29.2 µM (inactive); GI50 (HOP-18): 1.99 µM (inactive)
COc1ccc(/C=C2\CCCc3ccccc3C2=O)cc1				0.143 µM (active)		
CC(NC(=O)OC(C)(C)C)C(=O)NC(Cc1ccccc1)C(=O)NCC(=O)O (stereo not drawn) (Boc-Ala-Phe-Gly-OH; configuration not given here)				> 100 µM (inactive)		
CCOC(C)C(/C=N/NC(N)=S)=NNC(N)=S (stereo unspecified) [GLOXAZONE]	0.0865 µM (active)	> 100 µM (inactive)			< 0.01 µM (active)	GI50 (SNB-78): 53.7 µM (inactive)
C/C(=C\c1csc(C)n1)[C@@H]1C[C@@H]2O[C@]2(C)CCC[C@H](C)[C@H](O)[C@@H](C)C(=O)C(C)(C)[C@@H](O)CC(=O)O1 [PATUPILONE]				< 0.0001 µM (active)		
